In US10508090B2, “Sulfonamides as GPR40- and GPR120-agonists” (DOMPÉ FARMACEUTICI S.P.A., priority 2016, dated 2019):

Tests used:
human GPR120 = biological target: T1, human GPR120 (Homo sapiens, UniProt Q5NUL3); assay: In vitro Ca2+ mobilization, CHO-k1 cells stably expressing human GPR120; assay type: cell-based; conditions: for AC50: intracellular calcium, CHO-k1 cells expressing human GPR120, read-out: Ca2+ hGPR120 AC50
T1 construct: expressed in transfected cells; host or cells: CHO-k1
T1 sequence (Q5NUL3 1-361): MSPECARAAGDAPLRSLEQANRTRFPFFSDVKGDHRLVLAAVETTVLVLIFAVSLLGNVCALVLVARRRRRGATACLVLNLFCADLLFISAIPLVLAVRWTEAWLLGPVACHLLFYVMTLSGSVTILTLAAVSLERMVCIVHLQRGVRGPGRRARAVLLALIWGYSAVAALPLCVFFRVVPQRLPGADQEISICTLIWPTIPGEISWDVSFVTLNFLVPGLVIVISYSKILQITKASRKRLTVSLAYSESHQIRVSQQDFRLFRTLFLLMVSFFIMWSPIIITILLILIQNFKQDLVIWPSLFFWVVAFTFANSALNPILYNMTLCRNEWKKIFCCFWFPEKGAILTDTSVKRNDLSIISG
Description: (§1) GPR120/40 Activation: In Vitro Ca^2+ Mobilization
(§2) The activation of GPR120/40 by all compounds was determined by measuring changes in intracellular calcium levels using a Ca^2+ sensitive fluorescent dye.
(§3) The experiments were performed using CHO-k1 cells stably expressing the human GPR120 or GPR40. Cells were seeded 10000 cells/well in 384-plates in complete medium and grown overnight at 37° C., 5% CO2. 24 h after seeding, cell culture media was removed and cells were loaded with the fluorescent Ca^2+ indicator (Fluo-8 NW dye in Tyrode's buffer). Dye-loaded cell plates were incubated for 1 h at room temperature under a yellow light sodium lamp.
(§4) Cell were treated with test compounds and controls at 10, 30 and 60 μM. The kinetic response was monitored over a period of 7 minutes (using FLIPRTETRA system). A second injection of 3× concentrated reference agonist at ˜EC50 were then administered to cells and the signal of the emitted fluorescence was measured over a period of additional 3 minutes. The agonist effect is expressed as a percentage of activation, with 100% activation being a result in which the Response Values of the test wells reach a level identical to the one of the Stimulator Controls (alpha linolenic acid reference agonist EC100). 0% activation is a result in which the Response Values of the test wells reach a level identical to the one of the Neutral Controls (assay buffer) in the AGO_KRV (Agonist Kinetic Response Value) response value.

human GPR40 = biological target: T2, human GPR40 (Homo sapiens, UniProt O14842); assay: In vitro Ca2+ mobilization, CHO-k1 cells stably expressing human GPR40; assay type: cell-based; conditions: for AC50 / Ca2+ hGPR40 AC50: intracellular calcium, CHO-k1 cells expressing human GPR40; for AC50: read-out: Ca2+ hGPR40 AC50
T2 construct: expressed in transfected cells; host or cells: CHO-k1
Description: as §1, §2, §3, §4

STC-1 cells = assay: In vitro GLP-1 secretion in STC-1 cells (ELISA); assay type: cell-based, murine; conditions: for fold induction at 30 µM: Mus musculus, STC-1, 0.5 h, read-out: GLP-1 RELEASE STC-1, fold of increase over DMSO
Description: (§5) GPR120/40 Activation: In Vitro GLP-1 Secretion
(§6) 2×10^5 STC-1 cells were seeded in a 12-plate and 24 hours later were treated with selected compounds. 1×10^6 NCI-H716 cells were differentiated in matrigel-coated 12-plate and treated 48 h hours later.
(§7) The day of the experiment, wells were washed once with 1 ml of PBS and then cells were stimulated with 0.5 ml of DMEM (w/o serum, w/o phenol-red) containing 30 μM of selected compounds in STC1 and 100 μM in differentiated NCIH716 for 30 minutes. DMSO has been used as negative control, α-linolenic acid (ALA) (endogenous agonist) as positive control. After stimulations, supernatants were collected, centrifuged at 4000 rpm for 4′ at 4° C., and used for the GLP1 detection by ELISA.

NCI-H716 cells = assay: In vitro GLP-1 secretion in differentiated NCI-H716 cells (ELISA); assay type: cell-based, human; conditions: for fold induction at 100 µM: Homo sapiens, NCI-H716, 0.5 h, compound at 100 μM for 30 minutes, differentiated NCI-H716 cells, read-out: GLP-1 RELEASE NCI, fold of increase over DMSO
Description: as §5, §6, §7

[1] = compound at 30 μM for 30 minutes, STC-1 cells

T2 sequence (O14842 whole entry): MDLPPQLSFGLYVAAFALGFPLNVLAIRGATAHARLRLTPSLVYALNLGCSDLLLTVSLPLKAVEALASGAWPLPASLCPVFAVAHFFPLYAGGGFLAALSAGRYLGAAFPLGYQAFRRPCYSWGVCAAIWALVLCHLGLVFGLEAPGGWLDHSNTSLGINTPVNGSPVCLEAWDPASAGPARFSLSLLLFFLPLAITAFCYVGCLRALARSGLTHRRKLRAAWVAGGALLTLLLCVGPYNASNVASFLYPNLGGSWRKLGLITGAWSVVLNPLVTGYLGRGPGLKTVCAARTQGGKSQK

SMILES	AC50 (human GPR120) [µM]	AC50 (human GPR40) [µM]	fold induction at 30 µM (STC-1 cells; [1])	fold induction at 100 µM (NCI-H716 cells)	agonistic activity on GPR120 (AC50 in the calcium mobilization assay), in words (human GPR120)	agonistic activity on GPR40 (AC50 in the calcium mobilization assay), in words (human GPR40)	GLP-1 secretion in STC1 (murine) cells, in words (STC-1 cells)	GLP-1 RELEASE STC-1, fold of increase over DMSO (STC-1 cells; [1]) [fold]	GLP-1 secretion in NCI-H716 (human) cells, in words (NCI-H716 cells)	Ca2+ hGPR40 AC50 (human GPR40)
Cn1nnc(NS(=O)(=O)c2cccc(CCCCCCC(=O)O)c2)n1 [Example 27, 7-(3-(N-(2-methyl-2H-tetrazol-5-yl)sulfamoyl)phenyl)heptanoic acid]	10.1	10.7	1.99 ± 0.51	2.89 ± 0.55	–	–	–	–	–	–
Cc1cc(F)c(-c2ccccc2)cc1NS(=O)(=O)c1cccc(CCCCCCC(=O)O)c1 [Example 9, 7-(3-(N-(6-fluoro-4-methyl-[1,1′-biphenyl]-3-yl)sulfamoyl)phenyl)heptanoic acid]	11.2	8.9	14.5	6.2	low microMolar range	low microMolar range	efficacious	14.5 ± 1.24	efficacious	–
Cc1nc(NS(=O)(=O)c2cccc(CCCCCCC(=O)O)c2)sc1C [Example 14, 7-(3-(N-(4,5-dimethylthiazol-2-yl)sulfamoyl)phenyl)heptanoic acid]	17.4	20.8	1.37 ± 0.11	1.81 ± 0.67	–	–	–	–	–	–
Cc1cc(-c2ccccc2)cc(C)c1NS(=O)(=O)c1cccc(CCCCCCC(=O)O)c1 [Example 32, 7-(3-(N-(3,5-dimethyl-[1,1′-biphenyl]-4-yl)sulfamoyl)phenyl)heptanoic acid]	11.1	23.7	3.67 ± 0.9	4.51 ± 0.59	–	–	–	–	–	–
Cc1cc(C)c(NS(=O)(=O)c2cccc(CCCCCC(=O)O)c2)c(C)c1 [Example 11, 6-{3-[(2,4,6-trimethylphenyl)sulfamoyl]phenyl}hexanoic acid]	6.2	–	1.71 ± 0.21	1.87 ± 0.27	low microMolar range	low microMolar range	efficacious	–	efficacious	Inactive
Cc1cc(C)c(CNS(=O)(=O)c2cccc(CCCCCCC(=O)O)c2)c(C)c1 [Example 2, 7-(3-(N-(2,4,6-trimethylbenzyl)sulfamoyl)phenyl)heptanoic acid]	7.09	11.2	3.2 ± 0.47	2.1 ± 0.52	low microMolar range	low microMolar range	efficacious	–	efficacious	–
Cc1cc(Oc2ccccc2)cc(C)c1NS(=O)(=O)c1cccc(CCCCCCC(=O)O)c1 [Example 33, 7-(3-(N-(2,6-dimethyl-4-phenoxyphenyl)sulfamoyl)phenyl)heptanoic acid]	18	–	3 ± 1.82	1.58 ± 1.27	low microMolar range	low microMolar range	efficacious	–	efficacious	Inactive
O=C(O)CCCCCCc1cccc(S(=O)(=O)Nc2cc(-c3ccccc3)ns2)c1 [Example 22, 7-(3-(N-(3-phenylisothiazol-5-yl)sulfamoyl)phenyl)heptanoic acid]	10.2	11.7	3.13 ± 1.26	3.71 ± 0.67	–	–	–	–	–	–
Cc1nc(NS(=O)(=O)c2cccc(CCCCCCC(=O)O)c2)oc1C [Example 15, 7-(3-(N-(4,5-dimethyloxazol-2-yl)sulfamoyl)phenyl)heptanoic acid]	24.1	27.5	1.19 ± 0.89	1.8 ± 0.91	–	–	–	–	–	–
Cc1cc(C(C)C)cc(C)c1NS(=O)(=O)c1cccc(CCCCCCC(=O)O)c1 [Example 3, 7-(3-(N-(4-isopropyl-2,6-dimethylphenyl)sulfamoyl)phenyl)heptanoic acid]	1.98	12.9	2.7 ± 0.31	2.5 ± 0.11	low microMolar range	low microMolar range	efficacious	–	efficacious	–
Cc1nsc(NS(=O)(=O)c2cccc(CCCCCCC(=O)O)c2)n1 [Example 17, 7-(3-(N-(3-methyl-1,2,4-thiadiazol-5-yl)sulfamoyl)phenyl)heptanoic acid]	22.3	13.9	1.9 ± 0.51	2.19 ± 1.22	–	–	–	–	–	–
Cc1cc(Br)cc(C)c1NS(=O)(=O)c1cccc(CCCCCCC(=O)O)c1 [Example 7, 7-(3-(N-(4-bromo-2,6-dimethylphenyl)sulfamoyl)phenyl)heptanoic acid]	5.72	19.8	1.8 ± 0.24	1.9 ± 0.15	low microMolar range	low microMolar range	efficacious	–	efficacious	–
Cc1cc(F)cc(-c2ccccc2)c1NS(=O)(=O)c1cccc(CCCCCCC(=O)O)c1 [Example 10, 7-(3-(N-(5-fluoro-3-methyl-[1,1′-biphenyl]-2-yl)sulfamoyl)phenyl)heptanoic acid]	16.5	12.8	4.7	2.5	low microMolar range	low microMolar range	efficacious	–	efficacious	–
Cc1n[nH]c(C)c1NS(=O)(=O)c1cccc(CCCCCCC(=O)O)c1 [Example 12, 7-(3-(N-(3,5-dimethyl-1H-pyrazol-4-yl)sulfamoyl)phenyl)heptanoic acid]	13.1	10.7	1.04 ± 0.32	1.41 ± 0.36	–	–	–	–	–	–
